What all share (test): NCI-60 cell line screen, 48 h
In assay [1] the test system is A498 renal.
Assay [2] concerns A549 NSCLC.
The subject of assay [3] is OVCAR-5 ovarian.
The test system of assay [4] is NCI-H460 lung.
The test system of assay [5] is SF-268 CNS.
The subject of assay [6] is HOP-62 NSCLC.
For assay [7], the system named is PC-3 prostate.
The test system of assay [8] is MOLT-4 leukemia.
Assay [9] concerns HL-60(TB) leukemia.
Assay [10] concerns SR leukemia.

For 13 compounds, GI50 and TGI results are on record in PubChem BioAssay (NCI).

Molecules are shown by their SMILES.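 Protocol summary: plate cells (96-well), add compound at 5 concentrations, incubate 48 h, interpolate endpoints linearly. GI50: concentration for 50% inhibition of growth. TGI: concentration producing complete growth inhibition.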

With `C=CC(=O)Nc1cccc(Oc2nc(Nc3ccc(N4CCN(C)CC4)cc3OC)ncc2Cl)c1`, the GI50 in [1] was 1.11 µM; in [2], 1.46 µM; in assay [3], 2.29 µM; in assay [4], 3.49 µM; in [5], 2.37 µM; in [6] it was 3.01 µM. In addition, the results for the GI50 in [7] and in assay [8] were 2.19 µM and 2.57 µM, respectively. In addition, the TGI in assay [1] is 3.49 µM; in [2], 3.33 µM; in assay [3] it was 13 µM; in [4], over 34.4 µM; in [5], 9.24 µM; in assay [6], 12.1 µM. Also, the TGI is 7.03 µM in [7] and over 23.4 µM in assay [8].

For the compound `C=C1CC2(CCS(=O)(=O)c3ccccc32)OC1=O` (stereo not drawn), the TGI was found to be 31.5 µM in [1]; 35.2 µM in assay [2]; 8.64 µM in [9]; 27.3 µM in assay [3]; 35.3 µM in assay [4]; 38.4 µM in assay [5]. For the same compound, the TGI in assay [6] stood at 46.8 µM; in assay [8], 15 µM.

On to `O=C(c1ccccc1)c1nc2ccc(C(F)(F)F)cc2nc1N1CCN(c2ccccc2)CC1`, for which the GI50 was 27.9 µM in assay [1]; over 100 µM in [2]; 30.9 µM in assay [9]; 70.5 µM in [3]; 52.1 µM in assay [4]; 48 µM in assay [5]. For the same compound, the GI50 is 60.9 µM in [6], 47.1 µM in assay [7] and 24.6 µM in assay [8]. For the same compound, the TGI in [1] is 68.6 µM; in assay [2] it was over 100 µM; in assay [9] it was over 100 µM; in assay [3], over 100 µM; in [4] it was over 100 µM; in assay [5] it was over 100 µM. The TGI in assay [6], in assay [7] and in assay [8] was over 100 µM in each case.

As to `COc1cc(O)c2c(c1)C(=O)C1=C(C2=O)C(O)C[C@@](C)(O)C1` (stereo partly drawn), the TGI in [1] amounted to 3.29 µM; in assay [2] it was 11.5 µM; in assay [9] it was 1.5 µM; in assay [3], 22.2 µM; in [4] it was 4.96 µM; in [5], 4.47 µM. Moreover, the values for the TGI in [10], in assay [6] and in assay [8] were 6.14 µM, 21.2 µM and 7.63 µM, respectively.

Regarding `Cc1ccc(C(=O)NCCN(C)C)c2nc3ccccc3cc12`, the TGI in assay [2] was 4.53 µM; in assay [9], over 100 µM; in assay [3] it was 8.71 µM; in assay [4] it was 14.7 µM; in assay [6] it was over 100 µM; in assay [8] it was over 100 µM.

Turning to `CCCCCCCCCCOC(=O)NCCC`, the TGI in assay [1] is over 100 µM; in assay [2], over 100 µM; in assay [9], 32.7 µM; in assay [3] it was 93.9 µM; in assay [4] it was 65.9 µM; in assay [5], over 100 µM. The TGI in assay [8] stood at 43.6 µM.

As for `O=C(O)c1c2c(cc3c(=O)cc(-c4ccccc4)oc13)CCCC2`, the TGI in assay [1], in assay [2], in [3], in assay [4], in assay [5] and in [6] was over 100 µM in each case. The same compound registered a TGI in assay [8] of over 100 µM.

Consider `O=C(O)CN(c1ccc(F)cc1)S(=O)(=O)c1ccccc1`, for which the TGI in assay [1], in assay [2], in assay [9], in assay [3], in assay [4] and in assay [5] was over 100 µM throughout. The same compound showed a TGI in assay [8] of over 100 µM.

For the compound `COC12OCCN(C)C1=CC(=O)C1(C)N=NCC12` (stereo not drawn), the TGI in assay [1], in assay [2], in assay [4] and in assay [8] was over 100 µM throughout.

For the compound `CCOC(=O)CN(c1ccccc1)c1nc(=[N+](C)C)ss1`, the TGI in [1] was over 100 µM; in [2] it was over 100 µM; in assay [9], 48.4 µM; in [5], over 100 µM; in assay [10], 41.9 µM; in [6] it was over 100 µM. In assay [8], this compound gave a TGI of 28.2 µM.

Take `C=CC(=O)N1CC[C@H](n2nc(C#Cc3cc(OC)cc(OC)c3)c3c(N)ncnc32)C1`: the TGI was 1.6 µM in [1]; over 100 µM in [2]; 70.4 µM in assay [9]; over 100 µM in [3]; over 100 µM in assay [4]; over 100 µM in assay [5]. Further, the TGI in assay [6] is over 100 µM; in [7], over 100 µM; in [8], 69.3 µM. Besides, the GI50 is 9.78 µM in [2]; 6.23 µM in [9]; 62.3 µM in [3]; 9.97 µM in assay [4]; 4.19 µM in [5]; 5.43 µM in assay [6]. Moreover, the GI50 is 11.3 µM in assay [7] and 5.02 µM in [8].

Take `COC(=O)CNc1nc(N(C)O)nc(N(C)O)n1`: the GI50 in assay [1] is 20.3 µM; in assay [2], 3.44 µM; in assay [3], 9.24 µM; in assay [4] it was 0.557 µM; in assay [5], 1.83 µM; in [6], 2.12 µM. Besides, the values for the GI50 in assay [7] and in assay [8] were over 100 µM and 1.69 µM, respectively. Further, the TGI in assay [1], in [2], in [3], in assay [4], in [5] and in [6] was over 100 µM throughout. Also, the TGI in assay [7] and in assay [8] was over 100 µM throughout.

For `COc1cc2c(c(OC)c1OC)-c1c(c3ccc([N+](=O)[O-])cc3c(=O)n1CCCN)C2=O`, the GI50 in assay [1] was 8.22 µM; in assay [2], 1.32 µM; in [3], 1.77 µM; in [4], 15.9 µM; in assay [5] it was 13.2 µM; in [6] it was 0.937 µM. Besides, the GI50 was 7.68 µM in [7] and 5.82 µM in [8]. Also, the TGI in [1] was 18 µM; in assay [2], 3.06 µM; in [3], 6.35 µM; in [4], over 50 µM; in assay [5] it was 34.6 µM; in [6], 1.73 µM. For the same compound, the TGI in [7] stood at 15 µM; in [8] it was 14.2 µM.
